Laboratory results published in US4990534A, “Aralkyl esters and processes for their preparation” (priority 1987, dated 1991).
Where two headings read alike, the source gives them in different places.

Experiments:
[1] = test system: cholinergic responses (oxotremorine-induced tremor); experiment: Potentiation of oxotremorine-induced tremor in rats; assay type: in vivo, rat (Sprague Dawley); details: for minimal effective dose: Rattus norvegicus
Method: Potentiation of cholinergic responses
Studies on oxotremorine-induced tremor in rats
Male rats (Sprague Dawley Alab Laboratorietjanst AB, Sollentuna, Sweden) weighing 150-180 g, 35-40 days of age, were used. The animals were allowed free access to food (R3, Ewos AB, Sodertalje, Sweden) and water until the start of the experiments. The test compounds were injected intraperitoneally (i.p.) 30 min before injection of oxotremorine into the neck (s.c.). Tremor intensity was assessed visually for a 60 min period following the injection of oxotremorine in rat housed in Macrolon cages (25×25×30 cm) (tree per cage). The treshold dose of oxotremorine for eliciting tremor in rat is 200 μg/kg.
Tremor intensity was scored using the following rating scale: 0=no tremor; 1=slight tremor (moderate, discontinuous tremor); 2=strong tremor (intense, continuous tremor involving the whole body). The animals were scored 5, 10, 15, 30 and 60 min after injection of oxotremorine. The tremor was scored for a period of 30 seconds.
The values for each observation were summed over the entire observation period (5-60 min) and their median values for each group were calculated (total median score). Mann-Whitney U-test (two-tailed) was used to determine differences between the control oxotremorine group and test groups receiving the compounds+oxotremorine. It should be noted that a control group receiving oxotremorine alone was always run concurrently with each compound tested.
The lowest dose causing a significant (p<0.05) potentiation of the oxotremorine response was determined from log-dose response curves.

[2] = test system: synaptosomal uptake, noradrenalin; experiment: Inhibition of synaptosomal uptake of noradrenalin; assay type: biochemical; details: rat cerebral cortex synaptosomes, 50 nM [3H]noradrenaline, pH 7.4, 37° C.
Method: (§1) Inhibition of the Synaptosomal Uptake of Monoamines
(§2) Crude synaptosome preparations from rat cerebral cortex were made by homogenizing the tissues in 10 volumes of ice-cold 0.32M sucrose with all-glass Potter'-Elvehjem's homogenizers. The homogenates were centrifuged at 800 g at +2° C. for 10 min. The supernatants were centrifuged at 12000 g at +2° C. for 10 min, and the pellets were rehomogenized in 0.32M sucrose to the original volume. The incubation of the preparations with [^14 C]serotonin plus [^3 H]noradrenaline with final concentrations of 50 nM of each amine was performed in a Micronic PPN Storage-Block-96 (Flow Laboratories) with 8×12 wells using two rows at each incubation. Four to five different concentrations of two test compounds in duplicates were examined at each incubation. Fifty microliters of the synaptosomal preparation, 400 μl of the Krebs-Henseleit's buffer, pH 7.4, containing 5.6 mM glucose, 1.1 mM ascorbic acid, 0.13 mM disodium edetate, and 50 μM pargyline, and 25 μl of the inhibitor or distilled water were added to the wells. The solutions were mixed by vortexing the block for 10 s. After 10-min preincubation at 37° C. in a water bath, 25 μl of the solutions of the radioactively labeled amines was added to the two rows with a Titretec Multicannel Pipette, type 12-Channel (Flow Laboratories). The reaction was immediately started by vortexing the block for 10 s on a Super-Mixer, and the incubation was continued for 2 min at 37° C. The uptake reaction was stopped by filtration and washing for 15 s with ice-cold 0.15M NaCl through a Whatman GF/B glass filter paper in a 24-channel Cell Harvester (Brandel) using the standard harvesting probe. The filters were left to dry in room temperature for about 1 h. The punched filters were transformed to counting vials, 10 mL of the scintillation liquid (Aquasol, NEN) was added, and vials were shaken and allowed to stand for 1 h before counting. The radioactivety was measured in a Packard Tri Carb liquid scintillation photometer. The active uptake of the amines was defined as the difference between the accumulation of the radioactivity in the absence (quadriplicates) and the presence (quadriplicates) of selective uptake inhibitors, determined at each incubation. These inhibitors were citalopram (0.3 μM) for the serotonin uptake and maprotiline (1 μM) for the norepinephrine uptake. The inhibition was calculated in percent of the active uptake. The IC50 values were obtained from log concentration-response curves.

[3] = test system: synaptosomal uptake, serotonin; experiment: Inhibition of synaptosomal uptake of serotonin; assay type: biochemical; details: rat cerebral cortex synaptosomes, 50 nM [14C]serotonin, pH 7.4, 37° C.
Method: as §1, §2

[4] = test system: neuronal 5-hydroxytryptamine (5-HT) uptake; details: U.S. Pat. No. 4 237 311; cited from earlier work
central nervous system = details: man; U.S. Pat. No. 4 237 311; cited from earlier work
cholinergic responses = details: U.S. Pat. No. 4 469 707; cited from earlier work
[5] = ip, i.p. 30 min before oxotremorine s.c., p<0.05, scored 5-60 min, read-out: Potentiation of OTMN tremor in rat (lowest dose causing a significant potentiation)
[6] = ip, read-out: Potentiation of OTMN tremor in rat (lowest dose causing a significant potentiation), i.p. 30 min before oxotremorine s.c., p<0.05, scored 5-60 min
[7] = i.p. 30 min before oxotremorine s.c., p<0.05, scored 5-60 min

Compound | minimal effective dose [1, 5] [mg/kg] | EC50 [2] [µM] | EC50 [3] [µM] | minimal effective dose [1, 6] [mg/kg] | other results
C=CCC(N)C(=O)OC(C)(C)Cc1ccc(Cl)cc1 (centres unmarked) [Example 5, 1-(4-Chlorophenyl)-2-methyl-2-propyl 2-amino-4-pentenoate] | 20 | 2.5 | 3.6 | – | –
O=C1CCCN1CC#CCN1CCCC1 [oxotremorine, reference compound] | – | – | – | – | minimal effective dose ([1]; sc, read-out: threshold dose of oxotremorine for eliciting tremor in rat, s.c., oxotremorine alone): 0.2 mg/kg
CC(N)C(=O)OC(C)(C)Cc1ccc(Cl)cc1 (centres unmarked) [Alaproclate, reference compound] | – | > 10 | 0.12 | 5 | effect on neuronal 5-HT uptake (in words) [4]: blocking the neuronal 5-hydroxytryptamine (5-HT) uptake; tremor response induced by a threshold dose of oxotremorine (in words) ([1]; threshold dose of oxotremorine): enhance the tremor response; antidepressive activity (in words) (central nervous system): antidepressive activity combined with a reduced frequency of side effects; effect on cholinergic responses (in words) (cholinergic responses): potentiating effect on cholinergic responses
CC(C)C(N)C(=O)OC(C)(C)Cc1ccc(Cl)cc1 (single isomer, unassigned; (+)) [Example 26, (+)-1-(4-Chlorophenyl)-2-methyl-2-propyl 2-amino-3-methylbutanoate] | – | 1.8 | 8.7 | 20 | –
CCC(N)C(=O)OC(C)(C)Cc1ccc(F)cc1 (centres unmarked) [Example 2, 1-(4-fluorophenyl)-2-methyl-2-propyl 2-aminobutanoate] | – | 7 | 3 | 10 | –
CC(C)C(N)C(=O)OC(C)(C)Cc1ccc(Cl)cc1 (single isomer, unassigned) [Example 27, 1-(4-chlorophenyl)-2-methyl-2-propyl 2-amino-3-methyl-butanoate] | – | 1.7 | 3.3 | – | Potentiation of OTMN tremor in rat (lowest dose causing a significant potentiation) [1, 7]: 10 mg/kg
CCCC(N)C(=O)OC(C)(C)Cc1ccc(Cl)cc1 (centres unmarked) [Example 4, 1-(4-Chlorophenyl)-2-methyl-2-propyl 2-aminopentanoate] | 2.5 | 1.5 | 2.3 | – | –
CC(C)C(N)C(=O)OC(C)(C)Cc1cc(Cl)cc(Cl)c1 (centres unmarked) [Example 14, 1-(3,5-Dichlorophenyl)-2-methyl-2-propyl 2-amino-3-methylbutanoate] | 10 | > 10 | 4 | – | –
CCC(N)C(=O)OC(C)(C)Cc1ccc(Cl)cc1 (centres unmarked) [Example 1, 1-(4-Chlorophenyl)-2-methyl-2-propyl 2-aminobutanoate] | – | 8 | 2.8 | 2.5 | –
1-(4-Chlorophenyl)-2-methyl-2-propyl SS/RS-2-amino-3-methylpentanoate [Example 15] | – | 3.1 | 8 | – | Potentiation of OTMN tremor in rat (lowest dose causing a significant potentiation) [1, 7]: 10 mg/kg
CCC(C)C(N)C(=O)OC(C)(C)Cc1ccc(Cl)cc1 (centres unmarked) [Example 12, 1-(4-Chlorophenyl)-2-methyl-2-propyl 2-amino-3-methylpentanoate] | – | 3.2 | 6.5 | 20 | –
CCCC(N)C(=O)OC(C)(C)Cc1ccc(F)cc1 (centres unmarked) [Example 3, 1-(4-fluoropnenyl)-2-methyl-2-propyl 2-aminopentanoate] | 10 | 3.2 | 6 | – | –
CC(C)C(N)C(=O)OC(C)(C)Cc1ccc(F)cc1 (centres unmarked) [Example 13, 1-(4-Fluorophenyl)-2-methyl-2-propyl 2-amino-3-methylbutanoate] | 20 | 2.9 | 10 | – | –
CC(C)CC(N)C(=O)OC(C)(C)Cc1ccc(Cl)cc1 (centres unmarked) [Example 11, 1-(4-Chlorophenyl)-2-methyl-2-propyl 2-amino-4-methylpentanoate] | – | 3.4 | 8 | 10 | –
C#CCC(N)C(=O)OC(C)(C)Cc1ccc(Cl)cc1 (centres unmarked) [Example 7, 1-(4-Chlorophenyl)-2-methyl-2-propyl 2-amino-4-pentynoate] | 10 | > 10 | > 10 | – | –
